Measurements as given in patent US12274732B2, “Anti-pathogen composition and methods of use thereof” (Tenfold Technologies, LLC, priority 2017, dated 2025).
In brackets after ≈: the same amount, converted by molar mass. Where two headings read alike, the source gives them in different places. Positions of bridges follow the written chain, without caps; N, C: chain ends. Non-standard residues stand in square brackets, D forms with d. Residues, ends and D or L forms follow the SMILES beside them. ξ: configuration not given here. *: point of attachment. Pentadecanoyl(3ξ-OH,15-Gua) = N=C(N)NCCCCCCCCCCCCC(O)CC(=O)*; d(aThr) = C[C@@H](O)[C@@H](N)C(=O)O

Tests used:
Candida albicans = assay: In vitro antimicrobial activity against Candida albicans; format: cell-based
Description: (§1) Fifty organic extracts were prepared from 25 whole broth of four microbial strains (MS1479, MS2379, MS2820, and MS2414), which were fermented in different media for the antimicrobial testing. Note each whole broth culture generated one n-butanol extract from cultural supernatant and one methanol extract from cell pellets.
(§2) The antimicrobial activities of the 50 organic extracts were studied against three fungal pathogens—Candida albicans, Aspergillus fumigatus, and Cryptococcus neoformans—and five bacterial strains-Methicillin-resistant Staphylococcus aureus (MIRSA), Escherichia coli, Pseudomonas aeruginosa, Klebsiella pneumoniae, and Vancomycin-resistant Enterococcus faecium (VRE) (FIG. 2). The test concentrations for all extracts were in the range of 8-200 μg/mL (Table 3).
(§3) The antimicrobial activities of identified fusaricidins were in an in vitro study against several clinically relevant microbes. […] For the in-vitro assays against bacteria, fusaricidins were tested against methicillin-resistant Staphylococcus aureus, vancomycin-resistant Enterococcus faecium, Escherichia coli, and Pseudomonas aeruginosa using four antibacterial drugs methicillin, vancomycin, cefotaxime, and meropenem as controls. […] Fusaricidins were also tested against fungal pathogens Cryptococcus neoformans, Candida albicans, and Aspergillus fumigatus and compared with two antifungal drugs, fluconazole and amphotericin B (Table 13). Moreover, the anti-parasitic activity was also tested against L. donovani and T. brucei (Table 14).

Aspergillus fumigatus = assay: In vitro antimicrobial activity against Aspergillus fumigatus; format: cell-based
Description: as §1, §2, §3

Cryptococcus neoformans = assay: In vitro antimicrobial activity against Cryptococcus neoformans; format: cell-based
Description: as §1, §2
The potent activities against the fungal pathogen C. neoformans and the gram-positive bacteria S. aureus, MRSA, and M. intracellulare were also shown in the crude extracts (FIG. 7).
as §3

[1] = system: Methicillin-resistant Staphylococcus aureus (MRSA); assay: In vitro antimicrobial activity against MRSA; format: cell-based
Description: as §1, §2, §3

Escherichia coli = assay: In vitro antimicrobial activity against Escherichia coli; format: cell-based
Description: as §1, §2, §3

Pseudomonas aeruginosa = assay: In vitro antimicrobial activity against Pseudomonas aeruginosa; format: cell-based
Description: as §1, §2, §3

Klebsiella pneumoniae = assay: In vitro antimicrobial activity against Klebsiella pneumoniae; format: cell-based; settings: test conc. 200-8 μg/mL (extracts), 100-4 or 10-0.4 μg/mL (drugs)
Description: as §1, §2

[2] = system: Vancomycin-resistant Enterococcus faecium (VRE); assay: In vitro antimicrobial activity against VRE; format: cell-based
Description: as §1, §2, §3

L. donovani = assay: In-vitro antiparasitic activity against L. donovani; format: cell-based
Description: as §3

THP-1 = assay: Cytotoxicity against THP-1 cells (counter-screen of the antiparasitic assays); format: cell-based
Description: as §3

[3] = Heat stability of fusaricidins, whole broth autoclaved; format: physicochemical; settings: fermentation whole broth autoclaved at 121.5° C. for 30 minutes
Description: In order to test the heat stability of fusaricidins, the fermentation whole broth was autoclaved at 121.5° C. for 30 minutes. Fusaricidin contents were analyzed before and after autoclave. Without being bound by a theory, fusaricidin A is heat stable because significant amounts of fusaricidin A were detected after the harsh heat treatment in most cases (FIG. 3B).

[4] = Table 5, extracts tested at 8-200 μg/mL
[5] = Table 12, highest test conc. fusaricidins 20, controls 100 μg/mL
[6] = Table 12, lowest concentration that allows no detectable growth
[7] = test conc. 200-8 μg/mL (extracts), 100-4 or 10-0.4 μg/mL (drugs)

## C[C@@H]1[C@H](O)[C@@H](C)/C=C/C=C/C=C/C=C/C=C/C=C/C=C/[C@H](O[C@@H]2O[C@H](C)[C@@H](O)[C@H](N)[C@@H]2O)C[C@@H]2O[C@](O)(C[C@@H](O)C[C@@H](O)[C@H](O)CC[C@@H](O)C[C@@H](O)CC(=O)O[C@H]1C)C[C@H](O)[C@H]2C(=O)O [Amphotericin B]
Candida albicans; [4]
  C. albicans IC50: <0.1 µg/mL
Candida albicans; [5]
  C. albicans IC50 (50% growth inhibitory concentration): 0.4 µg/mL
Candida albicans; [6]
  C. albicans MIC (minimum inhibitory concentration): 0.8 µg/mL
Candida albicans; [7]
  C. albicans IC50: <0.1 µg/mL
Aspergillus fumigatus; [4]
  A. fumigatus IC50: 1.407 µg/mL
Aspergillus fumigatus; [5]
  A. fumigatus IC50 (50% growth inhibitory concentration): 2.4 µg/mL
Aspergillus fumigatus; [6]
  A. fumigatus MIC (minimum inhibitory concentration): 3.1 µg/mL
Aspergillus fumigatus; [7]
  A. fumigatus IC50: 1.407 µg/mL
Cryptococcus neoformans; Example 4, column fractions of MS2414 extract (FIG. 7)
  IC50 against C. neoformans: 0.15 µg/mL (≈ 0.162 µM)
Cryptococcus neoformans; [4]
  C. neoformans IC50: 0.24 µg/mL
Cryptococcus neoformans; [5]
  C. neoformans IC50 (50% growth inhibitory concentration): 0.3 µg/mL
Cryptococcus neoformans; [6]
  C. neoformans MIC (minimum inhibitory concentration): 0.4 µg/mL
Cryptococcus neoformans; [7]
  C. neoformans IC50: 0.24 µg/mL
[1]; [4]
  MRS IC50: >100 µg/mL
[1]; [7]
  MRS IC50: >100 µg/mL
Escherichia coli; [7]
  E. coli IC50: >100 µg/mL
Pseudomonas aeruginosa; [7]
  P. aeruginosa IC50: >100 µg/mL
Klebsiella pneumoniae
  K pneumoniae IC50: >100 µg/mL
[2]; [4]
  VRE IC50: >100 µg/mL
[2]; [7]
  VRE IC50: >100 µg/mL
L. donovani; amastigote
  L. donovani Amastigote IC50: 0.9 µg/mL
L. donovani; amastigote/THP
  L. donovani Amastigote/THP IC50: 0.2/0.2 μg/mL
L. donovani; amastigote/THP, 90% inhibitory concentration
  L. donovani Amastigote/THP IC90: 0.2/0.2 μg/mL
L. donovani; amastigote, 90% inhibitory concentration
  L. donovani Amastigote IC90: 1.1 µg/mL
L. donovani; promastigote
  L. donovani Promastigote IC50: 0.3 µg/mL
L. donovani; promastigote, 90% inhibitory concentration
  L. donovani Promastigote IC90: 0.4 µg/mL
THP-1
  THP-1 IC50: >2/>2 μg/mL
THP-1; 90% inhibitory concentration
  THP-1 IC90: >2/>2 μg/mL

## CC(C)[C@@H]1NC(=O)[C@@H](C(C)C)NC(=O)[C@@H](NC(=O)CC(O)CCCCCCCCCCCCNC(=N)N)[C@@H](C)OC(=O)[C@@H](C)NC(=O)[C@@H](CC(N)=O)NC(=O)[C@@H]([C@@H](C)O)NC1=O (stereo partly drawn) [Fusaricidin A] ({Pentadecanoyl(3ξ-OH,15-Gua)}-T[dV]V[d(aThr)][dN][dA]; ester 1-C)
[1]
  activity against MRSA (in words): strong activity
[2]
  activity against VRE (in words): strong activity
[3]
  heat stability: heat stable

## C[C@@H](O)[C@H]1C(=O)N2C(C(=O)O)=C(S[C@@H]3CN[C@H](C(=O)N(C)C)C3)[C@H](C)[C@H]12 [Meropenem]
Candida albicans; Candida albicans, test conc. 200-8 μg/mL (extracts), 100-4 or 10-0.4 μg/mL (drugs), read-out: C. albicans IC50
  IC50: > 100 µg/mL
Candida albicans; [4]
  C. albicans IC50: >100 µg/mL
Aspergillus fumigatus; Aspergillus fumigatus, test conc. 200-8 μg/mL (extracts), 100-4 or 10-0.4 μg/mL (drugs), read-out: A. fumigatus IC50
  IC50: > 100 µg/mL
Aspergillus fumigatus; [4]
  A. fumigatus IC50: >100 µg/mL
Cryptococcus neoformans; Cryptococcus neoformans, test conc. 200-8 μg/mL (extracts), 100-4 or 10-0.4 μg/mL (drugs), read-out: C. neoformans IC50
  IC50: > 100 µg/mL
Cryptococcus neoformans; [4]
  C. neoformans IC50: >100 µg/mL
[1]; ATCC 1708 / MRSA, Table 13, Methicillin-resistant Staphylococcus aureus ATCC 1708, read-out: MRSA IC50 (50% growth inhibitory concentration)
  IC50: 5.7 µg/mL (≈ 14.9 µM)
[1]; ATCC 1708 / MRSA, Table 13, Methicillin-resistant Staphylococcus aureus ATCC 1708, read-out: MRSA MIC (minimum inhibitory concentration)
  MIC: 12.5 µg/mL (≈ 32.6 µM)
[1]; Staphylococcus aureus, MRSA, test conc. 200-8 μg/mL (extracts), 100-4 or 10-0.4 μg/mL (drugs), read-out: MRS IC50
  IC50: 2.75 µg/mL (≈ 7.17 µM)
Escherichia coli; ATCC2452, Table 13, Escherichia coli ATCC 2452, read-out: E. coli IC50 (50% growth inhibitory concentration)
  IC50: 5.4 µg/mL (≈ 14.1 µM)
Escherichia coli; ATCC2452, Table 13, Escherichia coli ATCC 2452, read-out: E. coli MIC (minimum inhibitory concentration)
  MIC: 12.5 µg/mL (≈ 32.6 µM)
Escherichia coli; Escherichia coli, test conc. 200-8 μg/mL (extracts), 100-4 or 10-0.4 μg/mL (drugs), read-out: E. coli IC50
  IC50: 11.5 µg/mL (≈ 30 µM)
Pseudomonas aeruginosa; ATCC2108, Table 13, Pseudomonas aeruginosa ATCC 2108, read-out: P. aeruginosa IC50 (50% growth inhibitory concentration)
  IC50: 5.9 µg/mL (≈ 15.4 µM)
Pseudomonas aeruginosa; ATCC2108, Table 13, Pseudomonas aeruginosa ATCC 2108, read-out: P. aeruginosa MIC (minimum inhibitory concentration)
  MIC: 25 µg/mL (≈ 65.2 µM)
Pseudomonas aeruginosa; Pseudomonas aeruginosa, test conc. 200-8 μg/mL (extracts), 100-4 or 10-0.4 μg/mL (drugs), read-out: P. aeruginosa IC50
  IC50: > 100 µg/mL
Klebsiella pneumoniae; Klebsiella pneumoniae, read-out: K pneumoniae IC50
  IC50: 18.1 µg/mL (≈ 47.3 µM)
[2]; ATCC 700221 / VRE, Table 13, Vancomycin-resistant Enterococcus faecium ATCC 700221, read-out: VRE IC50 (50% growth inhibitory concentration)
  IC50: > 100 µg/mL
[2]; ATCC 700221 / VRE, Table 13, Vancomycin-resistant Enterococcus faecium ATCC 700221, read-out: VRE MIC (minimum inhibitory concentration)
  MIC: > 100 µg/mL
[2]; [4]
  VRE IC50: >100 µg/mL
[2]; test conc. 200-8 μg/mL (extracts), 100-4 or 10-0.4 μg/mL (drugs), read-out: VRE IC50
  IC50: > 100 µg/mL
